How the values were obtained:
Assay in all cases: cells
KGN = type: functional, cell-based, Homo sapiens; conditions: Homo sapiens, KGN;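 note: growth inhibition of KGN cells, read out with a cell viability assay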
Description: SANGER: Inhibition of human KGN cell growth in a cell viability assay.

NCI-H209 = type: functional, cell-based, Homo sapiens; conditions: Homo sapiens, NCI-H209;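 note: growth inhibition of human NCI-H209 cells, measured by a cell viability assay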
Description: SANGER: Inhibition of human NCI-H209 cell growth in a cell viability assay.

ETK-1 = type: functional, cell-based, Homo sapiens; conditions: Homo sapiens, ETK-1;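 note: growth inhibition of human ETK-1 cells, read out with a cell viability assay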
Description: SANGER: Inhibition of human ETK-1 cell growth in a cell viability assay.

EW-3 = type: functional, cell-based, Homo sapiens; conditions: Homo sapiens, EW-3;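 note: cell viability assay read-out, IC50 reflects inhibition of growth of the EW-3 cells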
Description: SANGER: Inhibition of human EW-3 cell growth in a cell viability assay.

SHP77 = type: functional, cell-based, Homo sapiens, SHP-77; conditions: Homo sapiens, SHP77;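 note: growth inhibition of human SHP-77 cells measured by a cell viability assay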
Description: SANGER: Inhibition of human SHP-77 cell growth in a cell viability assay.

RKO = type: functional, cell-based, Homo sapiens; conditions: Homo sapiens, RKO;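 note: growth inhibition of human RKO cells, read out with a cell viability assay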
Description: SANGER: Inhibition of human RKO cell growth in a cell viability assay.

Becker = type: functional, cell-based, Homo sapiens; conditions: Homo sapiens, Becker;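 note: growth inhibition of Becker cells, read out with a cell viability assay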
Description: SANGER: Inhibition of human Becker cell growth in a cell viability assay.

A4-Fuk = type: functional, cell-based, Homo sapiens; conditions: Homo sapiens, A4-Fuk;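 note: growth inhibition of A4-Fuk cells, read out by a cell viability assay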
Description: SANGER: Inhibition of human A4-Fuk cell growth in a cell viability assay.

TE-9 = type: functional, cell-based, Homo sapiens; conditions: Homo sapiens, TE-9;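 note: cell growth inhibition, measured with a cell viability readout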
Description: SANGER: Inhibition of human TE-9 cell growth in a cell viability assay.

LB2241-RCC = type: functional, cell-based, Homo sapiens; conditions: Homo sapiens, LB2241-RCC;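 note: cell viability assay measuring how strongly the cultured human renal carcinoma line is prevented from growing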
Description: SANGER: Inhibition of human LB2241-RCC cell growth in a cell viability assay.

COLO-829 = type: functional, cell-based, Homo sapiens; conditions: Homo sapiens, COLO-829
Description: SANGER: Inhibition of human COLO-829 cell growth in a cell viability assay.

ALL-PO = type: functional, cell-based, Homo sapiens; conditions: Homo sapiens, ALL-PO;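 note: growth inhibition of ALL-PO cells, read out by a cell viability assay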
Description: SANGER: Inhibition of human ALL-PO cell growth in a cell viability assay.

LB1047-RCC = type: functional, cell-based, Homo sapiens; conditions: Homo sapiens, LB1047-RCC;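 note: inhibition of cell growth, determined with a cell viability assay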
Description: SANGER: Inhibition of human LB1047-RCC cell growth in a cell viability assay.

SF-126 = type: functional, cell-based, Homo sapiens; conditions: Homo sapiens, SF-126;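 note: growth inhibition of human SF126 cells, read out with a cell viability assay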
Description: SANGER: Inhibition of human SF126 cell growth in a cell viability assay.

HH = type: functional, cell-based, Homo sapiens; conditions: Homo sapiens, HH
Description: SANGER: Inhibition of human HH cell growth in a cell viability assay.

GI-ME-N = type: functional, cell-based, Homo sapiens; conditions: Homo sapiens, GI-ME-N;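 note: growth inhibition of human GI-ME-N cells, read out with a cell viability assay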
Description: SANGER: Inhibition of human GI-ME-N cell growth in a cell viability assay.

ES7 = type: functional, cell-based, Homo sapiens; conditions: Homo sapiens, ES7;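 note: growth inhibition of cultured human ES7 cells, read out as cell viability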
Description: SANGER: Inhibition of human ES7 cell growth in a cell viability assay.

SK-N-DZ = type: functional, cell-based, Homo sapiens; conditions: Homo sapiens, SK-N-DZ;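 note: growth inhibition of the cancer cell line, read out through a viability assay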
Description: SANGER: Inhibition of human SK-N-DZ cell growth in a cell viability assay.

A498 = type: functional, cell-based, Homo sapiens; conditions: Homo sapiens, A498;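 note: growth inhibition of human A498 cells, read out with a cell viability assay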
Description: SANGER: Inhibition of human A498 cell growth in a cell viability assay.

IST-SL1 = type: functional, cell-based, Homo sapiens; conditions: Homo sapiens, IST-SL1;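 note: growth inhibition of human IST-SL1 cells, read out with a cell viability assay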
Description: SANGER: Inhibition of human IST-SL1 cell growth in a cell viability assay.

EW-16 = type: functional, cell-based, Homo sapiens; conditions: Homo sapiens, EW-16;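 note: growth inhibition of human EW-16 cells, read out as cell viability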
Description: SANGER: Inhibition of human EW-16 cell growth in a cell viability assay.

NCI-H510A = type: functional, cell-based, Homo sapiens; conditions: Homo sapiens, NCI-H510A;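 note: growth inhibition of NCI-H510A cells, read out with a cell viability assay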
Description: SANGER: Inhibition of human NCI-H510A cell growth in a cell viability assay.

ES8 = type: functional, cell-based, Homo sapiens; conditions: Homo sapiens, ES8;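 note: growth inhibition of human ES8 cells, read out with a cell viability assay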
Description: SANGER: Inhibition of human ES8 cell growth in a cell viability assay.

TGW = type: functional, cell-based, Homo sapiens; conditions: Homo sapiens, TGW;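 note: growth inhibition of human TGW cells, read out with a cell viability assay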
Description: SANGER: Inhibition of human TGW cell growth in a cell viability assay.

HCE-4 = type: functional, cell-based, Homo sapiens; conditions: Homo sapiens, HCE-4;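 note: cell viability assay measuring inhibition of growth in the human HCE-4 cell line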
Description: SANGER: Inhibition of human HCE-4 cell growth in a cell viability assay.

D-502MG = type: functional, cell-based, Homo sapiens; conditions: Homo sapiens, D-502MG
Description: SANGER: Inhibition of human D-502MG cell growth in a cell viability assay.

ES1 = type: functional, cell-based, Homo sapiens; conditions: Homo sapiens, ES1;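 note: growth inhibition of ES1 cells, read out with a cell viability assay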
Description: SANGER: Inhibition of human ES1 cell growth in a cell viability assay.

K5 = type: functional, cell-based, Homo sapiens; conditions: Homo sapiens, K5
Description: SANGER: Inhibition of human K5 cell growth in a cell viability assay.

SW 962 = type: functional, cell-based, Homo sapiens; conditions: Homo sapiens, SW 962;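 note: growth inhibition of human SW962 cells, read out by a cell viability assay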
Description: SANGER: Inhibition of human SW962 cell growth in a cell viability assay.

DOHH-2 = type: functional, cell-based, Homo sapiens; conditions: Homo sapiens, DOHH-2;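 note: growth inhibition of human DOHH-2 cells, read out with a cell viability assay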
Description: SANGER: Inhibition of human DOHH-2 cell growth in a cell viability assay.

NCI-H1648 = type: functional, cell-based, Homo sapiens; conditions: Homo sapiens, NCI-H1648;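 note: cell viability assay measuring inhibition of NCI-H1648 cell growth, from the Sanger screening data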
Description: SANGER: Inhibition of human NCI-H1648 cell growth in a cell viability assay.

EM-2 = type: functional, cell-based, Homo sapiens; conditions: Homo sapiens, EM-2;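 note: growth inhibition of EM-2 cells, read out with a cell viability assay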
Description: SANGER: Inhibition of human EM-2 cell growth in a cell viability assay.

GR-ST = type: functional, cell-based, Homo sapiens; conditions: Homo sapiens, GR-ST
Description: SANGER: Inhibition of human GR-ST cell growth in a cell viability assay.

NB6 = type: functional, cell-based, Homo sapiens; conditions: Homo sapiens, NB6;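 note: growth inhibition of NB6 cells, read out by a cell viability assay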
Description: SANGER: Inhibition of human NB6 cell growth in a cell viability assay.

KM-H2 = type: functional, cell-based, Homo sapiens; conditions: Homo sapiens, KM-H2;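 note: growth inhibition of KM-H2 cells, read out by a cell viability assay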
Description: SANGER: Inhibition of human KM-H2 cell growth in a cell viability assay.

JVM-3 = type: functional, cell-based, Homo sapiens; conditions: Homo sapiens, JVM-3;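 note: growth inhibition of human JVM-3 cells, read out with a cell viability assay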
Description: SANGER: Inhibition of human JVM-3 cell growth in a cell viability assay.

EW-13 = type: functional, cell-based, Homo sapiens; conditions: Homo sapiens, EW-13;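 note: growth inhibition of EW-13 cells, read out with a cell viability assay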
Description: SANGER: Inhibition of human EW-13 cell growth in a cell viability assay.

NMC-G1 = type: functional, cell-based, Homo sapiens; conditions: Homo sapiens, NMC-G1;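 note: growth inhibition of the NMC-G1 cell line, measured with a cell viability read-out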
Description: SANGER: Inhibition of human NMC-G1 cell growth in a cell viability assay.

NCI-H82 = type: functional, cell-based, Homo sapiens; conditions: Homo sapiens, NCI-H82;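 note: growth inhibition of NCI-H82 cells, measured with a cell viability readout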
Description: SANGER: Inhibition of human NCI-H82 cell growth in a cell viability assay.

IA-LM = type: functional, cell-based, Homo sapiens; conditions: Homo sapiens, IA-LM;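 note: cell viability assay measuring growth inhibition of human IA-LM cells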
Description: SANGER: Inhibition of human IA-LM cell growth in a cell viability assay.

NCI-H1092 = type: functional, cell-based, Homo sapiens; conditions: Homo sapiens, NCI-H1092;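 note: cell growth inhibition measured with a cell viability assay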
Description: SANGER: Inhibition of human NCI-H1092 cell growth in a cell viability assay.

A388 = type: functional, cell-based, Homo sapiens; conditions: Homo sapiens, A388;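 note: growth inhibition of human A388 cells, read out with a cell viability assay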
Description: SANGER: Inhibition of human A388 cell growth in a cell viability assay.

HL-60 = type: functional, cell-based, Homo sapiens; conditions: Homo sapiens, HL-60;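 note: growth inhibition of human HL-60 cells, read out with a cell viability assay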
Description: SANGER: Inhibition of human HL-60 cell growth in a cell viability assay.

AM-38 = type: functional, cell-based, Homo sapiens; conditions: Homo sapiens, AM-38;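 note: growth inhibition of AM-38 cells of human origin, read out by a cell viability assay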
Description: SANGER: Inhibition of human AM-38 cell growth in a cell viability assay.

CP66-MEL = type: functional, cell-based, Homo sapiens; conditions: Homo sapiens, CP66-MEL;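 note: growth inhibition of CP66-MEL cells determined in a cell viability assay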
Description: SANGER: Inhibition of human CP66-MEL cell growth in a cell viability assay.

HCC1187 = type: functional, cell-based, Homo sapiens; conditions: Homo sapiens, HCC1187;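 note: growth inhibition of HCC1187 cells, read out with a cell viability assay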
Description: SANGER: Inhibition of human HCC1187 cell growth in a cell viability assay.

ML-2 = type: functional, cell-based, Homo sapiens; conditions: Homo sapiens, ML-2;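 note: growth inhibition of ML-2 cells, measured with a cell viability readout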
Description: SANGER: Inhibition of human ML-2 cell growth in a cell viability assay.

HT-144 = type: functional, cell-based, Homo sapiens; conditions: Homo sapiens, HT-144
Description: SANGER: Inhibition of human HT-144 cell growth in a cell viability assay.

GOTO = type: functional, cell-based, Homo sapiens; conditions: Homo sapiens, GOTO;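 note: growth inhibition of GOTO cells, read out by a cell viability assay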
Description: SANGER: Inhibition of human GOTO cell growth in a cell viability assay.

NCI-H1650 = type: functional, cell-based, Homo sapiens; conditions: Homo sapiens, NCI-H1650;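 note: growth inhibition of human NCI-H1650 cells measured by a cell viability assay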
Description: SANGER: Inhibition of human NCI-H1650 cell growth in a cell viability assay.

Structure (SMILES): Cc1cc([N+](=O)[O-])ccc1NS(=O)(=O)c1cc(Cl)ccc1Cl
- IC50 (KGN): 4.2 µM
- IC50 (NCI-H209): > 32 µM
- IC50 (ETK-1): 6.35 µM
- IC50 (EW-3): > 32 µM
- IC50 (SHP77): 22.9 µM
- IC50 (RKO): 2.21 µM
- IC50 (Becker): 16.5 µM
- IC50 (A4-Fuk): > 32 µM
- IC50 (TE-9): 2.69 µM
- IC50 (LB2241-RCC): 2.61 µM
- IC50 (COLO-829): 0.825 µM
- IC50 (ALL-PO): 2.34 µM
- IC50 (LB1047-RCC): 6.74 µM
- IC50 (SF-126): 9.88 µM
- IC50 (HH): 15.2 µM
- IC50 (GI-ME-N): 11.5 µM
- IC50 (ES7): 11.1 µM
- IC50 (SK-N-DZ): > 32 µM
- IC50 (A498): > 32 µM
- IC50 (IST-SL1): 24.4 µM
- IC50 (EW-16): 4.59 µM
- IC50 (NCI-H510A): 20.2 µM
- IC50 (ES8): 8.95 µM
- IC50 (TGW): > 32 µM
- IC50 (HCE-4): 5.45 µM
- IC50 (D-502MG): 0.607 µM
- IC50 (ES1): 11.4 µM
- IC50 (K5): 6.43 µM
- IC50 (SW 962): 4.68 µM
- IC50 (DOHH-2): 17.2 µM
- IC50 (NCI-H1648): 2.04 µM
- IC50 (EM-2): 16.3 µM
- IC50 (GR-ST): 10.3 µM
- IC50 (NB6): 13.5 µM
- IC50 (KM-H2): 14.9 µM
- IC50 (JVM-3): > 32 µM
- IC50 (EW-13): 6.04 µM
- IC50 (NMC-G1): 9.89 µM
- IC50 (NCI-H82): 18 µM
- IC50 (IA-LM): 3.05 µM
- IC50 (NCI-H1092): > 32 µM
- IC50 (A388): 4.93 µM
- IC50 (HL-60): 3.79 µM
- IC50 (AM-38): 18.8 µM
- IC50 (CP66-MEL): 0.268 µM
- IC50 (HCC1187): 20.8 µM
- IC50 (ML-2): 7.87 µM
- IC50 (HT-144): 2.94 µM
- IC50 (GOTO): > 32 µM
- IC50 (NCI-H1650): 8.47 µM

Structure (SMILES): Oc1ccc2ccccc2c1SSc1c(O)ccc2ccccc12
- IC50 (KGN): 12.4 µM
- IC50 (NCI-H209): > 32 µM
- IC50 (ETK-1): > 32 µM
- IC50 (EW-3): 29.5 µM
- IC50 (SHP77): > 32 µM
- IC50 (RKO): 5.28 µM
- IC50 (Becker): > 32 µM
- IC50 (A4-Fuk): 9.44 µM
- IC50 (TE-9): > 32 µM
- IC50 (LB2241-RCC): 28 µM
- IC50 (COLO-829): > 32 µM
- IC50 (ALL-PO): 13.9 µM
- IC50 (LB1047-RCC): > 32 µM
- IC50 (SF-126): > 32 µM
- IC50 (HH): 10.8 µM
- IC50 (GI-ME-N): > 32 µM
- IC50 (ES7): > 32 µM
- IC50 (SK-N-DZ): 9.2 µM
- IC50 (A498): > 32 µM
- IC50 (IST-SL1): > 32 µM
- IC50 (EW-16): 24.8 µM
- IC50 (NCI-H510A): > 32 µM
- IC50 (ES8): > 32 µM
- IC50 (TGW): > 32 µM
- IC50 (HCE-4): > 32 µM
- IC50 (D-502MG): > 32 µM
- IC50 (ES1): > 32 µM
- IC50 (K5): > 32 µM
- IC50 (SW 962): > 32 µM
- IC50 (DOHH-2): > 32 µM
- IC50 (NCI-H1648): > 32 µM
- IC50 (EM-2): > 32 µM
- IC50 (GR-ST): 11 µM
- IC50 (NB6): 3.84 µM
- IC50 (KM-H2): > 32 µM
- IC50 (JVM-3): > 32 µM
- IC50 (EW-13): 4.2 µM
- IC50 (NMC-G1): > 32 µM
- IC50 (NCI-H82): > 32 µM
- IC50 (IA-LM): > 32 µM
- IC50 (NCI-H1092): > 32 µM
- IC50 (A388): > 32 µM
- IC50 (HL-60): 8.85 µM
- IC50 (AM-38): 21.7 µM
- IC50 (CP66-MEL): > 32 µM
- IC50 (HCC1187): > 32 µM
- IC50 (ML-2): 26.4 µM
- IC50 (HT-144): > 32 µM
- IC50 (GOTO): > 32 µM
- IC50 (NCI-H1650): > 32 µM

Structure (SMILES): N#Cc1c(O)c2c(-c3ccc(-c4ccccc4O)cc3)csc2[nH]c1=O
- IC50 (KGN): > 1.02 µM
- IC50 (NCI-H209): > 1.02 µM
- IC50 (ETK-1): > 1.02 µM
- IC50 (EW-3): > 1.02 µM
- IC50 (SHP77): 0.383 µM
- IC50 (RKO): > 1.02 µM
- IC50 (Becker): > 1.02 µM
- IC50 (A4-Fuk): > 1.02 µM
- IC50 (TE-9): > 1.02 µM
- IC50 (LB2241-RCC): > 1.02 µM
- IC50 (COLO-829): > 1.02 µM
- IC50 (ALL-PO): 0.0579 µM
- IC50 (LB1047-RCC): > 1.02 µM
- IC50 (SF-126): > 1.02 µM
- IC50 (HH): 0.458 µM
- IC50 (GI-ME-N): > 1.02 µM
- IC50 (ES7): > 1.02 µM
- IC50 (SK-N-DZ): 0.802 µM
- IC50 (A498): > 1.02 µM
- IC50 (IST-SL1): > 1.02 µM
- IC50 (EW-16): > 1.02 µM
- IC50 (NCI-H510A): 0.692 µM
- IC50 (ES8): > 1.02 µM
- IC50 (TGW): 0.311 µM
- IC50 (HCE-4): > 1.02 µM
- IC50 (D-502MG): > 1.02 µM
- IC50 (ES1): > 1.02 µM
- IC50 (K5): > 1.02 µM
- IC50 (SW 962): > 1.02 µM
- IC50 (DOHH-2): 0.245 µM
- IC50 (NCI-H1648): > 1.02 µM
- IC50 (EM-2): 0.344 µM
- IC50 (GR-ST): 0.218 µM
- IC50 (NB6): > 1.02 µM
- IC50 (KM-H2): 0.424 µM
- IC50 (JVM-3): > 1.02 µM
- IC50 (EW-13): > 1.02 µM
- IC50 (NMC-G1): > 1.02 µM
- IC50 (NCI-H82): > 1.02 µM
- IC50 (IA-LM): > 1.02 µM
- IC50 (NCI-H1092): 0.541 µM
- IC50 (A388): > 1.02 µM
- IC50 (HL-60): 0.0974 µM
- IC50 (AM-38): 0.0644 µM
- IC50 (CP66-MEL): > 1.02 µM
- IC50 (HCC1187): > 1.02 µM
- IC50 (ML-2): 0.0434 µM
- IC50 (HT-144): > 1.02 µM
- IC50 (GOTO): 0.395 µM
- IC50 (NCI-H1650): > 1.02 µM

Reference: ChEMBL document CHEMBL1201861, “Genomics of Drug Sensitity in Cancer screening data, Wellcome Trust Sanger Institute”
